In series [1] the target is T1, ALDH1A3 (Homo sapiens, UniProt P47895).
T1 construct: purchased
T1 sequence (P47895 1-512): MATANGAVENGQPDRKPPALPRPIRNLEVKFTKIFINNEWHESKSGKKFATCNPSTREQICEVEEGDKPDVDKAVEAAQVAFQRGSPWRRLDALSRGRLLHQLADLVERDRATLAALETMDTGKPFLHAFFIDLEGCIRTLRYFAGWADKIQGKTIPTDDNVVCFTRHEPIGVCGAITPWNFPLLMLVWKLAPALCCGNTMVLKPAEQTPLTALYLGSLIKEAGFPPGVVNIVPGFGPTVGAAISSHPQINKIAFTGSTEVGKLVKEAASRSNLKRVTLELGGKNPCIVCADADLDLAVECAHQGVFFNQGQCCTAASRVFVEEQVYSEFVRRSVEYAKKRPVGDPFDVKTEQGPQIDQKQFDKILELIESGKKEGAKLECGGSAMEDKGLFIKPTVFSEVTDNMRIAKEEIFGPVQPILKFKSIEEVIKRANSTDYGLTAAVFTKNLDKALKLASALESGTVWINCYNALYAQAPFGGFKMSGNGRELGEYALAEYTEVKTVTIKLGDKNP
Put plainly: Reactivity of probes to recombinant ALDH1A3 (UPLC/MS/MS). Format: biochemical. The settings on record: 10-100 nM ALDH, 10-80 μM compound, Tris buffer pH 7.5, 30 minutes at 37° C., ◯/X not defined by a legend. How it is done:
(§1) Human recombinant ALDH1A1/1A3/3A1 was purchased, and 100 mM of KCL, 2 mM of DTT, 1 mM of NAD(P), 10-100 nM of each ALDH, and 10-80 μM of each compound were mixed in Tris buffer (100 mM, pH 7.5), reacted for 30 minutes at 37° C., an equal amount of acetonitrile added, and the reaction stopped. The reaction solution was analyzed by UPLC/MS/MS (Waters). The UPCL chromatogram was carried out over five minutes at a flow rate of 800 μL/min by a linear gradient from 5% acetonitrile 0.01 M ammonium formate/water to 95% acetonitrile 0.01 M ammonium formate/water.

The target in a further series is T2, ALDH3A1 (Homo sapiens, UniProt P30838).
T2 construct: purchased
T2 sequence (P30838 1-453): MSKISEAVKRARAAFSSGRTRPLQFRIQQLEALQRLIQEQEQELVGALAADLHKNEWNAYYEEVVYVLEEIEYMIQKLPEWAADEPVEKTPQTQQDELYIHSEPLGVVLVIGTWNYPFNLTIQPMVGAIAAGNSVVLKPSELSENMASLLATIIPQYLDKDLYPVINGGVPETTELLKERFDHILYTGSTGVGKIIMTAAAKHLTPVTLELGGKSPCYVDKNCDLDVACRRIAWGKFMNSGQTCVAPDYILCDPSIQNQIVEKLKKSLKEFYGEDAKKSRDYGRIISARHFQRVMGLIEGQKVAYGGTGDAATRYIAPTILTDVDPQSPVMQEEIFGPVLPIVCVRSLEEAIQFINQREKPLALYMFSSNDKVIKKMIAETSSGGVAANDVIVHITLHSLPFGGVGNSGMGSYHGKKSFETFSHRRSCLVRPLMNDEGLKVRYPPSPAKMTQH
Put plainly: Reactivity of probes to recombinant ALDH3A1 (UPLC/MS/MS). The settings on record: 10-100 nM ALDH, 10-80 μM compound, Tris buffer pH 7.5, 30 minutes at 37° C., ◯/X not defined by a legend. Type of series: biochemical. How it is done: as §1

The target of series [2] is T1, ALDH1A3. Put plainly: Kinetic characteristics (Michaelis-Menten Km, Kcat) with ALDH1A3. Type of series: biochemical. The settings on record: five minutes at 37° C., Tris buffer pH 7.5. How it is done: as §1, with “formate/water. An aldehyde-form and carboxylic acid-form probe were detected by the absorbance at a wavelength of 504 nm, and m/z of the MS spectrum at each peak was confirmed to agree with the expected m/z.” for “formate/water.”
For the reaction, 100 mM of KCL, 2 mM of DTT, 1 mM of NAD(P), and five to six concentrations within the range of 10-100 nM of each ALDH and 0.1-80 μM of each probe were selected, mixed in Tris buffer (100 mM, pH 7.5), and reacted for five minutes at 37° C.; an equal amount of acetonitrile was added, and the reaction was stopped. Detection of the aldehyde-form/carboxylic acid-form probes was carried out using the same method as described above by UPLC/MS/MS. Km and Kcat were calculated by fitting the reaction rate at each probe concentration obtained to the Michaelis-Menten equation. A Kaleida Graph ver. 4.1 (Hulinks, Inc.) was used in fitting.

A short description of series [3]: HPLC (LC/MS) retention time as measure of hydrophilicity / membrane permeability. Format: physicochemical. The settings on record: C18 column, 20% B 2.5 min, 20%-->100% B 5 min, 500 μL/min, neutral conditions, mean±SD of three tests. How it is done: In the present invention, it is preferable to use the retention time on an HPLC chromatogram as the measure of hydrophilicity.
HPLC conditions: taking solvent A to be 0.01 M ammonium formate/water and solvent B to be 80% acetonitrile 0.01 M ammonium formate/water, chromatography is carried out under conditions of 20% solvent B for 2.5 minutes followed by a 5-minute linear gradient of solvent B from 20% to 100% (flow rate 500 μL/min).
A C18 column (HP 3 μm, inner diameter: 2.1 mm, length: 150 mm, GL Science), for example, can be used suitably as the column.
The water solubility was verified by LC/MS under neutral conditions to compare the membrane permeability of the five probes produced above and ALDEFLUOR. The reaction was stopped after advancing the reaction to the point that each probe was present as both a carboxylic acid form and an aldehyde form using a suitable isoform and concentration of ALDH, and analysis was conducted by LC/MS (Agilent 1200/6130 quadrupole LC/MS system). A C18 column (HP 3 μm, inner diameter: 2.1 mm, length: 150 mm, GL Science) was used as the column. HPLC chromatograms were carried out by 20% B for 2.5 minutes followed by a five-minute linear gradient (flow rate: 500 μL/min) from 20% to 100% B, taking solvent A to be 0.01 M ammonium formate/water and solvent B to be 80% acetonitrile 0.01 M ammonium formate/water. The probe containing BODIPY was detected by the absorbance at a wavelength of 504 nm and the probe containing TG at a wavelength of 495 nm, and m/z of the MS spectrum at each peak was confirmed to agree with the expected m/z. Three independent tests were run, and the mean±SD was calculated. […] Given that imaging of probe 1 was not successful, there was thought to be a threshold at which the membrane permeability changes rapidly between this 6.741 minutes and 7.098 minutes (band in FIG. 2).

Broadly, the Km is the concentration of substrate that gives half-maximal velocity.

For the substance “N-(4-formylbenzyl)-3-(1,3-dimethyl-4,4-difluoro-4-bora-3a,4a-diaza-s-indacen-5-yl)-propionamide [Probe 1]”, the “Reactivity to ALDH1A3” value is given as “◯” on ALDH1A3 [1] and “reacted with all three of the isoforms tested” on ALDH1A3 [1] (listed as Compound 1). For the same substance, the “Reactivity to ALDH3A1” value at ALDH3A1 is listed as “◯”; on ALDH3A1 (listed as Compound 1), “reacted with all three of the isoforms tested”. In addition, the “Kcat ALDH1A3” value at ALDH1A3 [2] was found to be 0.029 ± 0.0015 s⁻¹. Besides, the Michaelis constant (Km) at ALDH1A3 [2] stood at 1.64 ± 0.49 µM. Further, in series [3], the “Retention Time, Aldehyde form” value worked out at 8.874 ± 0.000 min. Also, the “Retention Time, carboxylate (carboxylic acid form)” value is given as 7.098 ± 0.001 min in series [3] and 7.098 min in series [3] (listed as probe 1).

(Values after patent US20200207989A1, “FLUORESCENT PROBE FOR ALDH3A1 DETECTION” (The University of Tokyo, priority 2016, published 2020).)
